One data set concerns the target T1, human Edg-1 (S1P1) (Homo sapiens, UniProt P21453).
T1 construct: expressed in transfected cells; host or cells: HEK-293
In words: S1P1 binding inhibition test (membrane, [33P]-S1P). Particulars: for inhibition at 10 µM: compound 10 μM, [33P]-S1P 0.1 nM, human Edg-1 (S1P1) HEK-293 membrane fraction, read-out: Binding test (membrane) % inhibition (10 μM); for pIC50: membrane system binding test, various concentrations. On the procedure:
The membrane fraction was obtained by treating the cells with a solubilizing buffer (1 mM Tris/HCl, pH 7.2) for 10 minutes on ice, centrifuging at 1000×g for 5 minutes to remove insoluble fractions, and then centrifuging at 40000×g for 30 minutes at 4° C. The resulting membrane fraction was dissolved in a binding buffer (20 mM Tris-HCl, pH 7.4, 100 mM NaCl, 15 mM NaF, 2 mM deoxypyridoxine, 4 mg/mL fatty acid-free BSA), and then [^33P]-S1P (manufactured by ARC, final concentration 0.1 nM) and a DMSO solution (final concentration of the compound 10^−5 M, final concentration of DMSO 0.1%) of the test compound were added. Thereafter, the mixture was stirred and then treated for one hour at 30° C. Using a harvester, the membrane fraction was harvested onto unifilter-96 GF/C filter (manufactured by Perkin Elmer), washing was carried out four times with the binding buffer, and the filter was dried. Twenty five μL Microscint 0 (manufactured by Perkin Elmer) was added, and radioactivity was measured using Top Count NXT (manufactured by Packard) to calculate the amount (A) of [^33P]-S1P bound to the membrane fraction at the time when the compound was added.
The same procedure was carried out in the absence of the test compound, and the amount (B) of [^33P]-S1P bound was calculated. Further, the same procedure was carried out in the absence of the test compound by use of HEK-293 cells to which no Edg-1 (S1P1) gene was introduced, and the background amount (C) of [^33P]-S1P bound was calculated.
Inhibition rate (%)=[1−(A−C)/(B−C)]×100.
Moreover, the concentration required for a test compound to produce 50% inhibition of the binding caused in the absence of the test compound was also calculated (IC50). The above membrane system binding test was performed in the presence of a test compound at various concentrations to calculate the inhibition rate of Edg-1(S1P1) binding at each concentration according to the above equation, followed by calculating an IC50 value for each compound with data analysis software, Origin (Lightstone Corp., Japan).

The melting point is the temperature, or range, at which the solid turns liquid. The term inhibition denotes the drop in the measured response relative to a control, in per cent. In general, pIC50 refers to the IC50 on a negative log10 scale, so that one unit is a factor of ten. A low value points to a high IC50. What is called pKd is the Kd on a negative log10 scale, so that one unit is a factor of ten. Read a low pKd as a high Kd.

pIC50, pKd: −log10 of the molar value. Some results are limits rather than exact numbers.

T1 sequence (P21453 whole entry): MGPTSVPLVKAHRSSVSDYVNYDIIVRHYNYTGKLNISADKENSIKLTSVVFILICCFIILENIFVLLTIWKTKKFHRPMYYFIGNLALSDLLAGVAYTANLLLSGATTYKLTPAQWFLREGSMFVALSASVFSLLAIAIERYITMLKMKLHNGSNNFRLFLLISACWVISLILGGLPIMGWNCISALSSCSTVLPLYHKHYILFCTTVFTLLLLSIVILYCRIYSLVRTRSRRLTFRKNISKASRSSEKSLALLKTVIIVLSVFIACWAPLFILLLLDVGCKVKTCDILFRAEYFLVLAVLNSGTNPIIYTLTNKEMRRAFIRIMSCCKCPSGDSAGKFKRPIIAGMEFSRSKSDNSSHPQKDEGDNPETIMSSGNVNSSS

Take `CCc1c(C(C)NS(=O)(=O)c2ccc3c(Cl)cccc3c2)nn(C)c1Oc1ccc(C)cc1` (stereo not shown) [Compound 181]: the melting point fell in the range of 154.5 to 155.5 °C. `CCn1c(C(C)NS(=O)(=O)c2ccc3c(Cl)cccc3c2)nc(Cl)c1Oc1ccc(C)cc1` (stereo not shown) [Compound 182] returned a melting point of 137.5 to 138.5 °C. As for `CCn1c(C(C)NS(=O)(=O)c2ccc3c(Cl)cccc3c2)cnc1Oc1cccc(N2CCN(C)CC2)c1` (stereo not shown) [Compound 185], the melting point was in the range of 205.5 to 206 °C. In addition, at human Edg-1 (S1P1), the inhibition at 10 µM worked out at 100% and the pIC50 was 8.43. As for `CCn1c(C(C)NS(=O)(=O)c2ccc(Cl)c(Cl)c2)cnc1Oc1ccc(F)cc1` (stereo not shown) [Compound 186], the melting point was 156 to 157 °C. Further, on human Edg-1 (S1P1), the inhibition at 10 µM came out at 99.8% and the pIC50 was at least 7.15.

For the compound `CCn1c(C(C)NS(=O)(=O)c2ccc3c(Cl)cccc3c2)cnc1Oc1ccc(F)cc1` (stereo not shown) [Compound 187], the melting point was in the range of 138 to 141 °C. For the same compound, at human Edg-1 (S1P1), the inhibition at 10 µM was found to be 101% and the pIC50 is at least 7.46. For the compound `CCn1c(Oc2ccc(F)cc2)nc(C)c1C(C)NS(=O)(=O)c1ccc(Cl)c(Cl)c1` (stereo not shown) [Compound 188, 3,4-Dichloro-N-{1-[3-ethyl-2-(4-fluorophenoxy)-5-methyl-3H-imidazol-4-yl]-ethyl}-benzenesulfonamide], the melting point is 119.5 to 120.5 °C. Further, on human Edg-1 (S1P1), the inhibition at 10 µM was 100%.

Regarding `CCn1c(C(C)NS(=O)(=O)c2ccc(Cl)c(Cl)c2)cnc1Oc1cccc(N2CCOCC2)c1` (stereo not shown) [Compound 190], the melting point lay within 167 to 169 °C. Moreover, on human Edg-1 (S1P1), the inhibition at 10 µM turned out to be 101% and the pIC50 is 7.96.

`CCC(NS(=O)(=O)c1ccc(Cl)c(Cl)c1)c1cnc(Oc2ccc(F)cc2)n1CC` (stereo not shown) [Compound 191, 3,4-Dichloro-N-{1-[3-ethyl-2-(4-fluorophenoxy)-3H-imidazol-4-yl]-propyl}-benzenesulfonamide]: the inhibition at 10 µM at human Edg-1 (S1P1) came to 100%.

The compound `CCC(NS(=O)(=O)c1ccc2c(Cl)cccc2c1)c1cnc(Oc2ccc(F)cc2)n1CC` (stereo not shown) [Compound 192] showed a melting point of 118 to 120 °C. Besides, on human Edg-1 (S1P1), the inhibition at 10 µM came out at 101% and the pIC50 was 7.64. The compound `CCn1c(C(Cc2ccccc2)NS(=O)(=O)c2ccc(Cl)c(Cl)c2)cnc1Oc1ccc(F)cc1` (stereo not shown) [Compound 193] yielded a melting point of 114.5 to 115.5 °C. Also, the inhibition at 10 µM on human Edg-1 (S1P1) turned out to be 98.6%. Compound `CCn1c(C(Cc2ccccc2)NS(=O)(=O)c2ccc3c(Cl)cccc3c2)cnc1Oc1ccc(F)cc1` (stereo not shown) [Compound 194] returned a melting point of 172.5 to 174 °C. Besides, on human Edg-1 (S1P1), the inhibition at 10 µM was found to be 93% and the pIC50 is at least 7.15. `CCn1c(C(C)NS(=O)(=O)c2ccc(Cl)c(Cl)c2)cnc1Oc1ccc(C)nc1` (stereo not shown) [Compound 195]: the melting point lay in the range of 174 to 175 °C. In addition, at human Edg-1 (S1P1), the inhibition at 10 µM turned out to be 96.1% and the pIC50 was 7.70. Compound `CCn1c(C(Cc2ccc(C)cc2)NS(=O)(=O)c2ccc(Cl)c(Cl)c2)cnc1Oc1ccc(F)cc1` (stereo not shown) [Compound 196] gave a melting point of 123.5 to 124 °C. For the same compound, the inhibition at 10 µM at human Edg-1 (S1P1) stood at 88.9%. For `CCn1c(C(Cc2ccc(C)cc2)NS(=O)(=O)c2ccc3c(Cl)cccc3c2)cnc1Oc1ccc(F)cc1` (stereo not shown) [Compound 197], the melting point fell in the range of 166 to 167 °C. For the same compound, the inhibition at 10 µM on human Edg-1 (S1P1) was 95.3%. The compound `CCn1c(C(C)NS(=O)(=O)c2ccc(Cl)c(Cl)c2)cnc1Oc1cccc(N(C)C)c1` (stereo not shown) [Compound 198] had a melting point of 171 to 172 °C. Further, at human Edg-1 (S1P1), the inhibition at 10 µM was determined as 97.8% and the pIC50 is 7.99. `CCn1c(C(Cc2ccc(F)cc2)NS(=O)(=O)c2ccc(Cl)c(Cl)c2)cnc1Oc1ccc(F)cc1` (stereo not shown) [Compound 199] displayed a melting point of 145.5 to 146.5 °C. In addition, the inhibition at 10 µM at human Edg-1 (S1P1) came out at 97.3%.

Turning to `CCn1c(C(Cc2ccc(F)cc2)NS(=O)(=O)c2ccc3c(Cl)cccc3c2)cnc1Oc1ccc(F)cc1` (stereo not shown) [Compound 200], the melting point was in the range of 175 to 176 °C. Further, at human Edg-1 (S1P1), the inhibition at 10 µM came out at 97.1% and the pIC50 is 7.77. Regarding `CCn1c(C(NS(=O)(=O)c2ccc(Cl)c(Cl)c2)c2ccccc2)cnc1Oc1ccc(F)cc1` (stereo not shown) [Compound 201], the melting point was 157.5 to 158 °C. Regarding `CCn1c(C(NS(=O)(=O)c2ccc3c(Cl)cccc3c2)c2ccccc2)cnc1Oc1ccc(F)cc1` (stereo not shown) [Compound 202], the melting point is 171.5 to 172.5 °C. The inhibition at 10 µM at human Edg-1 (S1P1) turned out to be 69.3%.

Compound `CCn1c(C(C)NS(=O)(=O)c2ccc(Cl)c(Cl)c2)cnc1Oc1ccc(OC)cc1` (stereo not shown) [Compound 203] gave a melting point of 146.5 to 148 °C. On human Edg-1 (S1P1), the inhibition at 10 µM was 102% and the pIC50 was 7.63.

As for `CCn1c(C(C)NS(=O)(=O)c2ccc(Cl)c(Cl)c2)cnc1Oc1ccccc1` (stereo not shown) [Compound 204], the melting point was 166.5 to 167.5 °C. Moreover, the inhibition at 10 µM at human Edg-1 (S1P1) turned out to be 95.7%. On the same counts, the results for `CCn1c(C(Cc2ccc(Cl)cc2)NS(=O)(=O)c2ccc(Cl)c(Cl)c2)cnc1Oc1ccc(F)cc1` (stereo not shown) [Compound 205] are 155.5 to 156.5 °C and 94.4%. Turning to `CCn1c(C(C)NS(=O)(=O)c2ccc(Cl)c(Cl)c2)cnc1Oc1ccc2ccccc2c1` (stereo not shown) [Compound 206], the melting point fell in the range of 172 to 173 °C. The inhibition at 10 µM at human Edg-1 (S1P1) was found to be 98.5%. `CCn1c(C(C)NS(=O)(=O)c2ccc(Cl)c(Cl)c2)cnc1Oc1cccc(C2CCN(C)CC2)c1` (stereo not shown) [Compound 207]: the melting point lay within 161 to 163.5 °C. On human Edg-1 (S1P1), the inhibition at 10 µM came out at 101% and the pIC50 was 7.74. Consider `CCn1c(Oc2ccc(F)cc2)nc(-c2ccccc2)c1C(C)NS(=O)(=O)c1ccc(Cl)c(Cl)c1` (stereo not shown) [Compound 227], for which the melting point was 216.5 to 217.5 °C. On to `CCn1c(C(C)NS(=O)(=O)c2ccc(Cl)c(Cl)c2)cnc1Oc1cccc(NS(C)(=O)=O)c1` (stereo not shown) [Compound 234, 3,4-Dichloro-N-{1-[3-ethyl-2-(3-methanesulfonylaminophenoxy)-3H-imidazol-4-yl]-ethyl}-benzenesulfonamide], for which, at human Edg-1 (S1P1), the inhibition at 10 µM was 98.1% and the pIC50 is at least 7.46.

`CCCCCCCCCCCCCCCCCCOc1ncc(C(C)NS(=O)(=O)c2ccc(Cl)c(Cl)c2)n1CC` (stereo not shown) [Compound 238] registered a melting point of 117 to 118 °C. With `CCn1c(C(C)NS(=O)(=O)c2ccc(Cl)c(Cl)c2)cnc1OC` (stereo not shown) [Compound 240], the melting point was in the range of 199 to 200 °C. For `CCn1c(C(C)NS(=O)(=O)c2ccc(Cl)c(Cl)c2)cnc1Sc1ccc(C)cc1` (stereo not shown) [Compound 241, 3,4-Dichloro-N-[1-(3-ethyl-2-p-tolylsulfanyl-3H-imidazol-4-yl)-ethyl]-benzenesulfonamide], the inhibition at 10 µM at human Edg-1 (S1P1) is 82.6%. `CCn1c(C(C)N(C)S(=O)(=O)c2ccc(Cl)c(Cl)c2)cnc1Oc1ccc(Cl)cc1` (stereo not shown) [Compound 248, 3,4-Dichloro-N-{1-[2-(4-chlorophenoxy)-3-ethyl-3H-imidazol-4-yl]-ethyl}-N-methyl-benzenesulfonamide]: on human Edg-1 (S1P1), the inhibition at 10 µM was found to be 90.2%. In the case of `CCn1c(C(C)NS(=O)(=O)c2ccc(Cl)c(Cl)c2)cnc1Oc1cccc(-n2cccc2)c1` (stereo not shown) [Compound 249, 3,4-Dichloro-N-{1-[3-ethyl-2-(3-pyrrol-1-yl-phenoxy)-3H-imidazol-4-yl]-ethyl}-benzenesulfonamide], at human Edg-1 (S1P1), the inhibition at 10 µM amounted to 100%. On to `CCn1c(C(C)NS(=O)(=O)c2ccc(Cl)c(Cl)c2)cnc1Oc1ccc2cc[nH]c2c1` (stereo not shown) [Compound 250, 3,4-Dichloro-N-{1-[3-ethyl-2-(1H-indol-6-yloxy)-3H-imidazol-4-yl]-ethyl}-benzenesulfonamide], for which, at human Edg-1 (S1P1), the inhibition at 10 µM is 101% and the pIC50 was 7.69. Turning to `CCn1c(C(C)NS(=O)(=O)c2ccc(Cl)c(Cl)c2)cnc1OCCCN1CCN(C)CC1` (stereo not shown) [Compound 251], at human Edg-1 (S1P1), the inhibition at 10 µM is 96.3%.

As to `CC[C@@H](NS(=O)(=O)c1ccc(Cl)c(Cl)c1)c1cnc(Oc2ccc(F)cc2)n1CC` [Compound 253, (R)-(+)-3,4-Dichloro-N-{1-[3-ethyl-2-(4-fluorophenoxy)-3H-imidazol-4-yl]-propyl}-benzenesulfonamide], on human Edg-1 (S1P1), the inhibition at 10 µM was determined as 100% and the pIC50 is 7.56.

Regarding `CC[C@H](NS(=O)(=O)c1ccc(Cl)c(Cl)c1)c1cnc(Oc2ccc(F)cc2)n1CC` [Compound 254, (S)-(−)-3,4-Dichloro-N-{1-[3-ethyl-2-(4-fluorophenoxy)-3H-imidazol-4-yl]-propyl}-benzenesulfonamide], the inhibition at 10 µM on human Edg-1 (S1P1) was 68.6%. `CCCCCCCCCCCCC/C=C/[C@@H](O)[C@@H](N)COP(=O)(O)O` [[^33P]-S1P, Sphingosine-1-phosphate]: on human Edg-1 (S1P1) (human Edg-1 (S1P1) gene transferred HEK-293 membrane fraction), the pKd is 9.82.

(Values after patent publication US7994204B2, “Binding inhibitor of sphingosine-1-phosphate” (Taisho Pharmaceutical Co., Ltd, priority 2006, dated 2011).)
